# Experiments:
# NDM-1 = NDM-1 (Klebsiella pneumoniae, UniProt C7C422); experiment: biochemical; assay type: biochemical; settings: fluorescence assay with CCF2-FA substrate; read-out: NDM-1 IC50
# [1] = system: Escherichia coli expressing NDM-1 (CLB30005); experiment: Antibiotic potentiation activity: synergistic concentration (MITC95) with imipenem, OD600 growth; assay type: cell-based; settings: concentration giving 95% inhibition of bacterial growth
# Summary of the method: (§1)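 Spectrophotometric growth readings were taken following 22–24 h at 35 °C. Before that, organisms in 1.1× CAMHB were mixed with imipenem, used at 4 μg/ml in assay, and test compound.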
# [2] = system: Serratia marcescens expressing IMP-1 (CL5741); experiment: as above; assay type: cell-based; settings: concentration giving 95% inhibition of bacterial growth
# Summary of the method: as §1
# [3] = system: Klebsiella pneumoniae expressing VIM-1 (IHMA599644); experiment: as above; assay type: cell-based; settings: concentration giving 95% inhibition of bacterial growth
# Summary of the method: as §1
# VIM-1 = VIM-1 (Pseudomonas aeruginosa (strain ATCC 15692 / DSM 22644 / CIP 104116 / JCM 14847 / LMG 12228 / 1C / PRS 101 / PAO1), UniProt A0A0F7KYQ8); experiment: Enzyme activity: determination of IC50, fluorescence assay with CCF2-FA substrate (VIM-1); assay type: biochemical; settings: fluorescence assay with CCF2-FA substrate; read-out: VIM-1 IC50
# IMP-1 = IMP-1 (Serratia marcescens, UniProt P52699); experiment: biochemical; assay type: biochemical; settings: fluorescence assay with CCF2-FA substrate; read-out: IMP-1 IC50
# Chain of IMP-1 (P52699 whole entry, looked up): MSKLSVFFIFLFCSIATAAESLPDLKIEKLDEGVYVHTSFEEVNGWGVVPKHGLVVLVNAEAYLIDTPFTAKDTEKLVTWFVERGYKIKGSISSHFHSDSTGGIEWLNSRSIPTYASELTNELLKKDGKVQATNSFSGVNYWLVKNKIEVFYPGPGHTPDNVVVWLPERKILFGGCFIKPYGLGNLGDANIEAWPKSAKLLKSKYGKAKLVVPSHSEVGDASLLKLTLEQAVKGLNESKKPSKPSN
# Chain of NDM-1 (C7C422 whole entry, looked up, species assumed): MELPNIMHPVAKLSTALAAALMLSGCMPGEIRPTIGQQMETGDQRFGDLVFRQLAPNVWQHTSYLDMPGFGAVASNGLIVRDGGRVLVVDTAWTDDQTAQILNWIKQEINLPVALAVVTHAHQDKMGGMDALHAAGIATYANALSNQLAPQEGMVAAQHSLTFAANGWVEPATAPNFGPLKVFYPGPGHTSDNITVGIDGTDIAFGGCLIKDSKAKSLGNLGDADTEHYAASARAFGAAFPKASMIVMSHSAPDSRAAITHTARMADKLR
SMILES,IC50 (NDM-1) [µM],Escherichia coli expressing NDM-1 (CLB 30005) MITC95 [1] [µM],Serratia marcescens expressing IMP-1 (CL5741) MITC95 [2] [µM],Klebsiella pneumoniae expressing VIM-1 (IHMA 599644) MITC95 [3] [µM],IC50 (VIM-1) [µM],IC50 (IMP-1) [µM]
"C[C@H]1NC(=O)O[C@H]1c1ccc(-c2cccc(S(N)(=O)=O)c2-c2nnn[nH]2)cc1 [Example 23, 4′-[(4R,5S)-4-methyl-2-oxo-1,3-oxazolidin-5-yl]-2-(1H-tetrazol-5-yl)biphenyl-3-sulfonamide]",0.000637,2.344,2.344,50,0.00976,0.00436
"NS(=O)(=O)c1cccc(-c2ccc(C(O)C(F)F)cc2)c1-c1nnn[nH]1 (stereo not drawn) [Example 24, 4′-(2,2-difluoro-1-hydroxyethyl)-2-(1H-tetrazol-5-yl)biphenyl-3-sulfonamide]",0.00365,1.563,3.125,150,0.124,0.0178
"N#CC1(c2ccc(-c3cccc(S(N)(=O)=O)c3-c3nnn[nH]3)cc2)CCOCC1 [Example 25, 4′-(4-cyanotetrahydro-2H-pyran-4-yl)-2-(1H-tetrazol-5-yl)biphenyl-3-sulfonamide]",< 0.000637,3.125,12.5,>200,0.0455,0.0036
"NS(=O)(=O)c1cccc(-c2ccc(C3CCNC3=O)cc2)c1-c1nnn[nH]1 (stereo not drawn) [Example 27, 4′-(2-oxopyrrolidin-3-yl)-2-(1H-tetrazol-5-yl)biphenyl-3-sulfonamide]",0.00223,3.125,3.125,200,0.0771,0.0131
"COC(=O)N1CCC(c2ccc(-c3cccc(S(N)(=O)=O)c3-c3nnn[nH]3)cc2)CC1 [Example 28, methyl 4-[3′-sulfamoyl-2′-(1H-tetrazol-5-yl)biphenyl-4-yl]piperidine-1-carboxylate]",0.000972,12.5,12.5,>200,0.0267,0.00374
"C[C@@H]1NC(=O)O[C@H]1c1ccc(-c2cccc(S(N)(=O)=O)c2-c2nnn[nH]2)cc1 [Example 29, 4′-[(4S,5S)-4-methyl-2-oxo-1,3-oxazolidin-5-yl]-2-(1H-tetrazol-5-yl)biphenyl-3-sulfonamide]",0.00149,3.125,6.25,200,0.0528,0.0121
"Cc1csc(-c2cccc(S(N)(=O)=O)c2-c2nn[nH]n2)n1 [Example 34, 3-(4-methyl-1,3-thiazol-2-yl)-2-(2H-tetrazol-5-yl)benzenesulfonamide]",0.151,3.125,150,>200,1.44,3.09
"NS(=O)(=O)c1cccc(-c2cccc(F)n2)c1-c1nn[nH]n1 [Example 36, 3-(6-fluoropyridin-2-yl)-2-(2H-tetrazol-5-yl)benzenesulfonamide]",0.0387,1.953,50,75,0.219,0.79
"COc1cccc(-c2cccc(S(N)(=O)=O)c2-c2nn[nH]n2)n1 [Example 37, 3-(6-methoxypyridin-2-yl)-2-(2H-tetrazol-5-yl)benzenesulfonamide]",0.0264,2.344,50,200,0.206,1.21
"COc1cncc(-c2cccc(S(N)(=O)=O)c2-c2nn[nH]n2)n1 [Example 40, 3-(6-methoxypyrazin-2-yl)-2-(2H-tetrazol-5-yl)benzenesulfonamide]",0.0422,3.125,200,200,0.56,3.05
"NS(=O)(=O)c1cccc(-c2ccco2)c1-c1nn[nH]n1 [Example 41, 3-furan-2-yl-2-(2H-tetrazol-5-yl)benzenesulfonamide]",0.0304,0.3906,9.375,200,1.15,0.247
"NS(=O)(=O)c1cccc(-c2cncs2)c1-c1nn[nH]n1 [Example 44, 2-(2H-tetrazol-5-yl)-3-(1,3-thiazol-5-yl)benzenesulfonamide]",0.0346,0.3906,12.5,37.5,0.294,0.293
"NS(=O)(=O)c1cccc(-c2cscn2)c1-c1nn[nH]n1 [Example 45, 2-(2H-tetrazol-5-yl)-3-(1,3-thiazol-4-yl)benzenesulfonamide]",0.085,0.7813,25,50,0.496,1.21
"NS(=O)(=O)c1cccc(-c2ccnc(F)c2)c1-c1nn[nH]n1 [Example 46, 3-(2-fluoropyridin-4-yl)-2-(2H-tetrazol-5-yl)benzenesulfonamide]",0.0145,0.5859,25,28.13,0.0991,0.302
"NS(=O)(=O)c1cccc(-c2ccnnc2)c1-c1nn[nH]n1 [Example 47, 3-pyridazin-4-yl-2-(2H-tetrazol-5-yl)benzenesulfonamide]",0.345,0.7813,50,>200,5.36,4.16
"NS(=O)(=O)c1cccc(-c2ccc(F)nc2)c1-c1nn[nH]n1 [Example 48, 3-(6-fluoropyridin-3-yl)-2-(2H-tetrazol-5-yl)benzenesulfonamide]",0.0191,0.3906,33.33,66.67,0.182,0.644
"Cn1nccc1-c1cccc(S(N)(=O)=O)c1-c1nn[nH]n1 [Example 49, 3-(1-methyl-1H-pyrazol-5-yl)-2-(2H-tetrazol-5-yl)benzenesulfonamide]",0.0216,0.5859,150,12.5,0.0617,4.05
"NS(=O)(=O)c1cccc(-c2ccc(-c3ccn[nH]3)cc2)c1-c1nn[nH]n1 [Example 50, 4′-(1H-pyrazol-5-yl)-2-(2H-tetrazol-5-yl)biphenyl-3-sulfonamide]",0.00271,2.344,12.5,200,0.0891,0.0379
"COC1CCN(C(=O)c2ccc(-c3cccc(S(N)(=O)=O)c3-c3nn[nH]n3)cc2)CC1 [Example 51, 4′-[(4-methoxypiperidin-1-yl)carbonyl]-2-(2H-tetrazol-5-yl)biphenyl-3-sulfonamide]",0.00274,9.375,31.25,>200,4.19,0.0274
"NS(=O)(=O)c1cccc(-c2ccc(C(=O)N3CCC(O)CC3)cc2)c1-c1nn[nH]n1 [Example 52, 4′-[(4-hydroxypiperidin-1-yl)carbonyl]-2-(2H-tetrazol-5-yl)biphenyl-3-sulfonamide]",0.00171,1.563,6.25,100,0.0966,0.0179
"NS(=O)(=O)c1cccc(-c2ccc3c(c2)C(=O)NC3)c1-c1nn[nH]n1 [Example 53, 3-(3-oxo-2,3-dihydro-1H-isoindol-5-yl)-2-(2H-tetrazol-5-yl)benzenesulfonamide]",0.00441,0.5859,6.25,37.5,0.037,0.0733
